Experiment [1] has as its target T1, PEP derived from bovine brain (Bos taurus, UniProt Q9XTA2).
T1 construct: PEP derived from bovine brain; from tissue; host or cells: bovine brain
T1 sequence (Q9XTA2 1-710): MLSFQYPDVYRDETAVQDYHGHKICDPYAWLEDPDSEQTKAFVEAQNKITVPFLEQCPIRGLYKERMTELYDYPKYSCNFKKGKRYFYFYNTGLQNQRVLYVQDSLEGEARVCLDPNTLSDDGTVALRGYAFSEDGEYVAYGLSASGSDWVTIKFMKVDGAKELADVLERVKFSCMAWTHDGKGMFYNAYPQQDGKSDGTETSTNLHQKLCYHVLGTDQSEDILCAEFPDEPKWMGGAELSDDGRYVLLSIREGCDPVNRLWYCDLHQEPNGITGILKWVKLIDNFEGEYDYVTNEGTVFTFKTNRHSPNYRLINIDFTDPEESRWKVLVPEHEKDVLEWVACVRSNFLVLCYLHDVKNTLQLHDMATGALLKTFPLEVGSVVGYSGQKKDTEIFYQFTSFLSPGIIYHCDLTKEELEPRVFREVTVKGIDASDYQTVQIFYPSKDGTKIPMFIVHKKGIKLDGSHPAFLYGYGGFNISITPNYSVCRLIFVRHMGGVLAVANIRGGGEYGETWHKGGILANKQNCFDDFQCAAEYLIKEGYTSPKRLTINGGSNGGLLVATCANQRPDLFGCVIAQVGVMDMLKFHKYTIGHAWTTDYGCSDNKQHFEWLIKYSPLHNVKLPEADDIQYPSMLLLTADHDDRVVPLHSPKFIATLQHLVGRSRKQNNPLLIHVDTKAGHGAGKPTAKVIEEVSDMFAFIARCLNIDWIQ
As to the kind of experiment: Measurement of PEP inhibitory action (substrate Z-Gly-Pro-β-naphtyl amide). In kind it is biochemical. The conditions noted are these: pH 7.0, 37°C, read-out: PEP Inhibition IC50. The procedure:
Those two types of cells were cultured in 200 µl/well of RPMI1640 medium added with 10% FCS in a 96-well microplate. The PEP inhibitors of this invention and comparative product, which are shown in Table 1, were separately added. The cells were cultured at 37°C for 18 hours in a capneic incubator. Formation of syncytia was observed. The PEP inhibitory action was measured according to the following method.
Z-Gly-Pro-β-naphtyl amide was used as a substrate and the inhibitory action against PEP derived from bovine brain was measured.
0.7 ml of 20 mM-tris HCl buffer (pH 7.0) containing 10 mM of EDTA and 10 mM of 2-mercaptoethanol was added with 100 µl of PEP (about 0.14 u/ml) and 100 µl of a test solution which had been prepared to have a predetermined concentration (0, 10⁻⁹ - 10⁻⁴M), and subjected to preincubation at 37°C for 5 minutes. To this was added various concentrations of a substrate which had been dissolved in 100 µl of 40% dioxane followed by incubation at 37°C for 15 minutes to proceed an exzymatic reaction. The reaction was terminated by the use of 25% trichloroacetic acid. The solution was centrifugally separated at 3,000 rpm for 10 minutes to obtain 0.5 ml of a supernatent, to which was added 0.5 ml of 0.1% nitrous acid, and 3 minutes after, 0.05% N-(1-naphtyl)ethylendediaminedihydrochloride ethanol solution. After allowing the mixture to stand at 37°C for 25 minutes, the absorbance at 570 nm was measured. […] Enzyme activity unit (µmol/min/ml) = ΔOD x 0.42 x dilution ratio

Experiment [2] has as its system LAV-1 infected CEM cells (CEM/LAV-1) and MOLT4 Clone 8. Put plainly: Inhibition of syncytia formation in mixed culture of HIV-infected and non-infected T cells. It is filed as cell-based. Also noted: key: -: Absolutely no inhibition of syncytium formation.; ±: Slight inhibition of syncytium formation.; +: Partial inhibition of syncytium formation.; ++: Substantial inhibition of syncytium formation.; +++: Complete inhibition of syncytium formation. The note with it: 1 mM; CEM/LAV-1 + MOLT4 Clone 8, 37°C, 18 hours. The text has this: When HIV-infected T cells and non-infected T cells are mixed in a test tube, the infected T cells and non-infected T cells undergo fusion and form giant cells. This "syncytium forming phenomenon" has already been known to be observed upon their mixing. This phenomenon is characteristic to intercellular infection from HIV and is regarded as an evidence for HIV infection of T cells.
LAV-1 infected CEM cells (CEM/LAV-1, 2 x 10⁴) and MOLT4 Clone 8 (1 x 10⁵) were used as HIV-infected cells and non-infected cells, respectively. Those two types of cells were cultured in 200 µl/well of RPMI1640 medium added with 10% FCS in a 96-well microplate. The PEP inhibitors of this invention and comparative product, which are shown in Table 1, were separately added. The cells were cultured at 37°C for 18 hours in a capneic incubator. Formation of syncytia was observed. The PEP inhibitory action was measured according to the following method.

Structures are written as SMILES. Square brackets hold non-standard residues; d marks the D form. Peptide text beside a SMILES is read from it. * marks the point of attachment. Cbz = O=C(OCc1ccccc1)*; Thz = O=C(O)[CH]1CSCN1

Turning to `O=C(C1CSCN1)N1CCSC1` (stereo not drawn) [comparative product, reference compound], the IC50 in experiment [1] was greater than 1000 µM.

In the case of `O=C(C1CCCN1C(=O)OCc1ccccc1)N1CCCCC1` (stereo not drawn), the “Inhibition of Syncytia Formation” value in experiment [2] is recorded as “±”. Moreover, the IC50 in experiment [1] is greater than 1000 µM.

As for `O=CC1CSCN1C(=O)C1CSCN1C(=O)OCc1ccccc1` (stereo not drawn) (Cbz-[Thz]-[Thz]-aldehyde; configuration not given here), the “Inhibition of Syncytia Formation” value in experiment [2] is “+++”.

`O=C(C1CSCN1C(=O)OCc1ccccc1)N1CCSC1` (stereo not drawn): the “Inhibition of Syncytia Formation” value in experiment [2] is recorded as “+++”. Also, in experiment [1], the IC50 was 0.00014 µM.

As to `O=C(C1CSCN1C(=O)OCc1ccccc1)N1CCCC1` (stereo not drawn), the IC50 in experiment [1] came out at 0.16 µM.

Turning to `O=C(C1CSCN1C(=O)OCc1ccccc1)N1CCOCC1` (stereo not drawn), the IC50 in experiment [1] came out at 0.54 µM.

`O=CC1CSCN1C(=O)C1CCCN1C(=O)OCc1ccccc1` (stereo not drawn) (Cbz-Pro-[Thz]-aldehyde; configuration not given here): the “Inhibition of Syncytia Formation” value in experiment [2] is “++”. Further, in experiment [1], the IC50 is 0.001 µM.

For `O=C(C1CCCN1C(=O)OCc1ccccc1)N1CCSC1` (stereo not drawn), the “Inhibition of Syncytia Formation” value in experiment [2] is given as “++”. In addition, the IC50 in experiment [1] worked out at 0.0046 µM.

Broadly, the IC50 is the concentration that gives 50% inhibition.

(Values after patent EP0355409A2, “Use of prolylendopeptidase inhibitors in the treatment of AIDS” (KABUSHIKI KAISHA YAKULT HONSHA, priority 1988, dated 1990).)
